Results from ChEMBL document CHEMBL4715829, “Heterodimeric Rifampicin-Tobramycin conjugates break intrinsic resistance of Pseudomonas aeruginosa to doxycycline and chloramphenicol in vitro and in a Galleria mellonella in vivo model” (Eur J Med Chem, 2019).

Columns and labels:
Escherichia coli [1] = assay: Antibacterial activity against Escherichia coli ATCC 25922 assessed as reduction in bacterial growth incubated for 18 hrs by broth microdilution assay; format: functional
Staphylococcus aureus = assay: Antibacterial activity against methicillin-resistance Staphylococcus aureus ATCC 33592 assessed as reduction in bacterial growth incubated for 18 hrs by broth microdilution assay; format: functional
Escherichia coli [2] = assay: Antibacterial activity against gentamicin-resistant Escherichia coli CAN-ICU 61714 assessed as reduction in bacterial growth incubated for 18 hrs by broth microdilution assay; format: functional
Pseudomonas aeruginosa [3] = assay: Antibacterial activity against gentamicin-resistant Pseudomonas aeruginosa CAN-ICU 62308 assessed as reduction in bacterial growth incubated for 18 hrs by broth microdilution assay; format: functional
Pseudomonas aeruginosa [4] = assay: Antibacterial activity against wild type Pseudomonas aeruginosa PAO1 assessed as reduction in bacterial growth incubated for 18 hrs by broth microdilution assay; format: functional
Pseudomonas aeruginosa [5] = assay: Antibacterial activity against Pseudomonas aeruginosa 200 harboring efflux mutant assessed as reduction in bacterial growth incubated for 18 hrs by broth microdilution assay; format: functional
Pseudomonas aeruginosa [6] = assay: Antibacterial activity against Pseudomonas aeruginosa PAO1 assessed as reduction in bacterial growth by measuring minocycline MIC at <=10 uM in presence of minocycline incubated for 18 hrs by broth microdilution assay based checkerboard assay (reference value: 8 microg/ml); format: functional; settings: dose microM <=10
Pseudomonas aeruginosa [7] = assay: Antibacterial activity against Pseudomonas aeruginosa PAO1 assessed as reduction in bacterial growth by measuring cefotaxime MIC at <=[…] uM in presence of cefotaxime incubated for 18 hrs by broth microdilution assay based checkerboard assay (reference value: […] microg/ml); format: functional; settings: dose microM <=10
Pseudomonas aeruginosa [8] = assay: Antibacterial activity against Pseudomonas aeruginosa PAO1 assessed as reduction in bacterial growth by measuring tigecycline MIC at <=10 uM in presence of tigecycline incubated for 18 hrs by broth microdilution assay based checkerboard assay (reference value: 4 microg/ml); format: functional; settings: dose microM <=10
Pseudomonas aeruginosa [9] = assay: Antibacterial activity against Pseudomonas aeruginosa PAO1 assessed as reduction in bacterial growth by measuring vancomycin MIC at <=10 uM in presence of vancomycin incubated for 18 hrs by broth microdilution assay based checkerboard assay (reference value: 256 microg/ml); format: functional; settings: dose microM <=10
Pseudomonas aeruginosa [10] = assay: Antibacterial activity against Pseudomonas aeruginosa PAO1 assessed as reduction in bacterial growth by measuring ceftazidime MIC at <=10 uM in presence of ceftazidime incubated for 18 hrs by broth microdilution assay based checkerboard assay (reference value: 2 microg/ml); format: functional; settings: dose microM <=10
Pseudomonas aeruginosa [11] = assay: Antibacterial activity against Pseudomonas aeruginosa PAO1 assessed as reduction in bacterial growth by measuring fosfomycin MIC at <=[…] uM in presence of fosfomycin incubated for 18 hrs by broth microdilution assay based checkerboard assay (reference value: […] microg/ml); format: functional; settings: dose microM <=10
Pseudomonas aeruginosa [12] = assay: Antibacterial activity against Pseudomonas aeruginosa PAO1 assessed as reduction in bacterial growth by measuring nitrofurantoin MIC at <=10 uM in presence of nitrofurantoin incubated for 18 hrs by broth microdilution assay based checkerboard assay (reference value: 512 microg/ml); format: functional; settings: dose microM <=10
Pseudomonas aeruginosa [13] = assay: Antibacterial activity against Pseudomonas aeruginosa PAO1 assessed as reduction in bacterial growth by measuring clindamycin MIC at <=10 uM in presence of clindamycin incubated for 18 hrs by broth microdilution assay based checkerboard assay (reference value: 1024 microg/ml); format: functional; settings: dose microM <=10
Pseudomonas aeruginosa [14] = assay: Antibacterial activity against Pseudomonas aeruginosa PAO1 assessed as fractional inhibitory concentration index in presence of Rifampicin incubated for 18 hrs by broth microdilution assay based checkerboard assay; format: functional
Pseudomonas aeruginosa [15] = assay: Antibacterial activity against Pseudomonas aeruginosa PAO1 assessed as fractional inhibitory concentration index in presence of Tobramycin incubated for 18 hrs by broth microdilution assay based checkerboard assay; format: functional
Pseudomonas aeruginosa [16] = assay: Antibacterial activity against Pseudomonas aeruginosa PAO1 assessed as fractional inhibitory concentration index in presence of Cefotaxime incubated for 18 hrs by broth microdilution assay based checkerboard assay; format: functional
Pseudomonas aeruginosa [17] = assay: Antibacterial activity against Pseudomonas aeruginosa PAO1 assessed as fractional inhibitory concentration index in presence of Doxycycline incubated for 18 hrs by broth microdilution assay based checkerboard assay; format: functional
Pseudomonas aeruginosa [18] = assay: Antibacterial activity against Pseudomonas aeruginosa PAO1 assessed as fractional inhibitory concentration index in presence of Tigecycline incubated for 18 hrs by broth microdilution assay based checkerboard assay; format: functional
Pseudomonas aeruginosa [19] = assay: Antibacterial activity against Pseudomonas aeruginosa PAO1 assessed as fractional inhibitory concentration index in presence of Moxifloxacin incubated for 18 hrs by broth microdilution assay based checkerboard assay; format: functional
Pseudomonas aeruginosa [20] = assay: Antibacterial activity against Pseudomonas aeruginosa PAO1 assessed as fractional inhibitory concentration index in presence of Aztreonam incubated for 18 hrs by broth microdilution assay based checkerboard assay; format: functional
Pseudomonas aeruginosa [21] = assay: Antibacterial activity against Pseudomonas aeruginosa PAO1 assessed as fractional inhibitory concentration index in presence of Chloramphenicol incubated for 18 hrs by broth microdilution assay based checkerboard assay; format: functional
Pseudomonas aeruginosa [22] = assay: Antibacterial activity against Pseudomonas aeruginosa PAO1 assessed as fractional inhibitory concentration index in presence of Clindamycin incubated for 18 hrs by broth microdilution assay based checkerboard assay; format: functional
Pseudomonas aeruginosa [23] = assay: Antibacterial activity against Pseudomonas aeruginosa PAO1 assessed as fractional inhibitory concentration index in presence of Erythromycin incubated for 18 hrs by broth microdilution assay based checkerboard assay; format: functional
Pseudomonas aeruginosa [24] = assay: Antibacterial activity against Pseudomonas aeruginosa PAO1 assessed as fractional inhibitory concentration index in presence of Pleuromutilin incubated for 18 hrs by broth microdilution assay based checkerboard assay; format: functional
Pseudomonas aeruginosa [25] = assay: Antibacterial activity against Pseudomonas aeruginosa PAO1 assessed as fractional inhibitory concentration index in presence of Novobiocin incubated for 18 hrs by broth microdilution assay based checkerboard assay; format: functional
Pseudomonas aeruginosa [26] = assay: Antibacterial activity against Pseudomonas aeruginosa 101243 assessed as fractional inhibitory concentration index in presence of chloramphenicol incubated for 18 hrs by broth microdilution assay; format: functional
Pseudomonas aeruginosa [27] = assay: Antibacterial activity against Pseudomonas aeruginosa 262-101856 assessed as fractional inhibitory concentration index in presence of doxycycline incubated for 18 hrs by broth microdilution assay; format: functional
Pseudomonas aeruginosa [28] = assay: Antibacterial activity against Pseudomonas aeruginosa 259-96918 assessed as fractional inhibitory concentration index in presence of doxycycline incubated for 18 hrs by broth microdilution assay; format: functional
Pseudomonas aeruginosa [29] = assay: Antibacterial activity against Pseudomonas aeruginosa 259-96918 assessed as fractional inhibitory concentration index in presence of chloramphenicol incubated for 18 hrs by broth microdilution assay; format: functional
Pseudomonas aeruginosa [30] = assay: Antibacterial activity against Pseudomonas aeruginosa 260-97103 assessed as fractional inhibitory concentration index in presence of chloramphenicol incubated for 18 hrs by broth microdilution assay; format: functional
Pseudomonas aeruginosa [31] = assay: Antibacterial activity against Pseudomonas aeruginosa 91433 assessed as fractional inhibitory concentration index in presence of chloramphenicol incubated for 18 hrs by broth microdilution assay; format: functional
[32] = Cytotoxicity against human HepG2 cells assessed as cell viability at <10 uM incubated for 48 hrs prestoblue assay; format: cell-based; settings: read-out: Activity
[33] = Hemolytic activity in porcine erythrocyte at 1024 ug/ml incubated for 1 hr; format: ADME, cell-based, Sus scrofa; settings: pig, porcine erythrocytes, at 1024 µg/mL, read-out: Activity
Pseudomonas aeruginosa [34] = assay: Antibacterial activity against Pseudomonas aeruginosa 100036 assessed as reduction in bacterial growth incubated for 18 hrs by broth microdilution assay; format: functional
Pseudomonas aeruginosa [35] = assay: Antibacterial activity against Pseudomonas aeruginosa 262-101856 assessed as reduction in bacterial growth incubated for 18 hrs by broth microdilution assay; format: functional
Pseudomonas aeruginosa [36] = assay: Antibacterial activity against Pseudomonas aeruginosa 101243 assessed as reduction in bacterial growth incubated for 18 hrs by broth microdilution assay; format: functional

CO[C@H]1/C=C/O[C@@]2(C)Oc3c(C)c(O)c4c(O)c(c(/C=N/N5CCN(Cc6cn(CCCCCCCCCCCCO[C@@H]7[C@@H](O[C@H]8O[C@H](CO)[C@@H](O)[C@H](N)[C@H]8O)[C@H](N)C[C@H](N)[C@H]7O[C@H]7O[C@H](CN)[C@@H](O)C[C@H]7N)nn6)CC5)c(O)c4c3C2=O)NC(=O)/C(C)=C\C=C\[C@H](C)[C@H](O)[C@@H](C)[C@@H](O)[C@@H](C)[C@H](OC(C)=O)[C@@H]1C.O=C(O)C(F)(F)F.O=C(O)C(F)(F)F.O=C(O)C(F)(F)F.O=C(O)C(F)(F)F.O=C(O)C(F)(F)F
MIC (Escherichia coli [1]): 16 µg/mL
MIC (Staphylococcus aureus): > 32 µg/mL
MIC (Escherichia coli [2]): > 32 µg/mL
MIC (Pseudomonas aeruginosa [3]): > 32 µg/mL
MIC (Pseudomonas aeruginosa [4]): 512 µg/mL
MIC (Pseudomonas aeruginosa [5]): 128 µg/mL
MIC (Pseudomonas aeruginosa [6]): 2 µg/mL
MIC (Pseudomonas aeruginosa [7]): 16 µg/mL
MIC (Pseudomonas aeruginosa [8]): 2 µg/mL
MIC (Pseudomonas aeruginosa [9]): 128 µg/mL
MIC (Pseudomonas aeruginosa [10]): 2 µg/mL
MIC (Pseudomonas aeruginosa [11]): 4 µg/mL
MIC (Pseudomonas aeruginosa [12]): 256 µg/mL
MIC (Pseudomonas aeruginosa [13]): 256 µg/mL
fractional inhibitory concentration index (FICI) (Pseudomonas aeruginosa [14]): 0.15
fractional inhibitory concentration index (FICI) (Pseudomonas aeruginosa [15]): 1.03
fractional inhibitory concentration index (FICI) (Pseudomonas aeruginosa [16]): 1.03
fractional inhibitory concentration index (FICI) (Pseudomonas aeruginosa [17]): 0.09
fractional inhibitory concentration index (FICI) (Pseudomonas aeruginosa [18]): 0.51
fractional inhibitory concentration index (FICI) (Pseudomonas aeruginosa [19]): 1.03
fractional inhibitory concentration index (FICI) (Pseudomonas aeruginosa [20]): 1.03
fractional inhibitory concentration index (FICI) (Pseudomonas aeruginosa [21]): 0.09
fractional inhibitory concentration index (FICI) (Pseudomonas aeruginosa [22]): 0.26
fractional inhibitory concentration index (FICI) (Pseudomonas aeruginosa [23]): 0.06
fractional inhibitory concentration index (FICI) (Pseudomonas aeruginosa [24]): 0.53
fractional inhibitory concentration index (FICI) (Pseudomonas aeruginosa [25]): 0.28
fractional inhibitory concentration index (FICI) (Pseudomonas aeruginosa [26]): 0.125
fractional inhibitory concentration index (FICI) (Pseudomonas aeruginosa [27]): <0.07
fractional inhibitory concentration index (FICI) (Pseudomonas aeruginosa [28]): <0.133
fractional inhibitory concentration index (FICI) (Pseudomonas aeruginosa [29]): <0.625
fractional inhibitory concentration index (FICI) (Pseudomonas aeruginosa [30]): <0.129
fractional inhibitory concentration index (FICI) (Pseudomonas aeruginosa [31]): 0.25
viability at 48 h [32]: > 90%
hemolysis at 1 h, 1024 ug/ml [33]: < 2%
MIC (Pseudomonas aeruginosa [34]): 256 µg/mL
MIC (Pseudomonas aeruginosa [35]): > 256 µg/mL
MIC (Pseudomonas aeruginosa [36]): 256 µg/mL
